The test system of assay [1] is E. coli HN818. The assay can be described thus: Susceptibility to acridine orange, AcrAB pump deficient strain HN818. It is filed as cell-based. The settings on record: acridine orange alone. The source says: The effect of L-phenylalanyl-L-arginyl-β-naphthylamide was also studied on an AcrAB pump deficient mutant of E. coli which was obtained by transposon mutagenesis in the laboratory of H. Nikaido.

For assay [2], the system named is P. aeruginosa PAO1, PAO4098E, K385 and 799/61. The assay can be described thus: Tetracycline accumulation in four P. aeruginosa strains (basal level). It is filed as cell-based, Pseudomonas aeruginosa. An excerpt:
Alternatively, efflux pumps are identified by their ability to lower the accumulation of a substrate in a cell. Efflux pumps involved in drug resistance can be identified because they confer resistance to antibiotics. Efflux pumps involved in multidrug resistance in bacteria usually give an intermediate level of resistance to a broad range of antibiotics. Specific mechanism of resistance, including specific efflux pumps, give a much higher level of resistance to one antibiotic or a group of structurally related antibiotics. […] To identify whether an efflux pump is involved in antibiotic resistance in a given strain, accumulation experiments should be performed using antibiotics that it is suspected are exported by the efflux pump. The protein pattern in electrophoresis of cytoplasmic membrane proteins should be studied to identify the overexpression of a protein or the appearance of a new band in the protein pattern using gel electrophoresis. For Gram-negative bacteria, the outer membrane proteins should also be studied. Since efflux pumps are a common occurrence in most bacteria, the basal level of antibiotic susceptibility of a wild type might be caused by naturally occurring efflux pumps. […] Mutants that overexpress the pumps can be isolated using antibiotic-containing media. These mutants will be more resistant to antibiotics and will accumulate lower levels of antibiotics. […]

In assay [3] the test system is wild-type strains of P. aeruginosa. The settings on record: cited from earlier work.
For assay [4], the system named is P. aeruginosa K799/61. The settings on record: mutant strain k799/61; cited from earlier work.
The test system of assay [5] is mexA-mexB-oprM. The settings on record: insertion mutagenesis; cited from earlier work.
For assay [6], the system named is P. aeruginosa strain K385. Put plainly: microbe, parasite or virus in culture. In kind it is cell-based. The settings on record: Pseudomonas aeruginosa, K385, 20 h, read-out: growth inhibition in the absence of ciprofloxacin.
In assay [7] the test system is P. aeruginosa K799/61. The assay can be described thus: Susceptibility to tetracycline and ciprofloxacin, pump deficient mutant K799/61.
The subject of assay [8] is P. aeruginosa strain 799/61. Put plainly: [3H]-tetracycline accumulation assay, strain 799/61 without efflux pumps. It is filed as cell-based, Pseudomonas aeruginosa. The settings on record: CCCP added. How it is done: A tetracycline accumulation assay was set up to measure the activity of efflux pumps in P. aeruginosa. The assay measures the accumulation of [3H]-tetracycline in bacteria and was optimized for measuring tetracycline accumulation in P. aeruginosa.
A new tetracycline steady state equilibrium is reached when CCCP is added to the cell suspension and pH equilibrates in both sides of the membrane.

For assay [9], the system named is AcrAE efflux system. The settings on record: cited from earlier work.
In assay [10] the test system is P. aeruginosa K385. The settings on record: cited from earlier work.

This is an account of results in patent US5989832A, “Method for screening for non-tetracycline efflux pump inhibitors” (Microcide Pharmaceuticals, Inc., priority 1995, dated 1999).

Entries after “also recorded” stand apart in the source; their conditions may differ. Where two headings read alike, the source gives them in different places. Peptide text beside a SMILES is read from it.

Consider `CN(C)c1ccc2cc3ccc(N(C)C)cc3nc2c1` [acridine orange], for which the “susceptibility of HN818 to acridine orange versus parent strain” value in assay [1] was “more susceptible to acridine orange than the parent strain”.

For `CN(C)C1C(=O)C(C(N)=O)=C(O)C2(O)C(=O)C3=C(O)c4c(O)cccc4C(C)(O)C3CC12` (stereo not shown) [tetracycline], the “tetracycline accumulation, efflux pump overproducer strains” value in [2] (PAO4098E and K385) is on record as “accumulated lower amounts of tetracycline”. The “intracellular accumulation of tetracycline, strain 799/61 versus others” value in assay [2] (strain 799/61) is on record as “highest internal concentration; also recorded: accumulated more tetracycline than the wild type PAO1”. The “efflux by wild-type strains” value in assay [3] was “very effectively”. Also, the “capability of pumping out” value in assay [4] is “essentially incapable of pumping out”. Moreover, the “susceptibility of the strain with inactivated operon” value in [5] is reported as “almost as susceptible as E. coli”.

As to `O=C(N[C@H](CO)[C@H](O)c1ccc([N+](=O)[O-])cc1)C(Cl)Cl` [chloramphenicol], the “efflux by wild-type strains” value in assay [3] is given as “very effectively”. For the same compound, the “capability of pumping out” value in assay [4] is given as “essentially incapable of pumping out”. Moreover, the “susceptibility of the strain with inactivated operon” value in assay [5] was “almost as susceptible as E. coli”.

For `N=C(N)NCCC[C@H](NC(=O)[C@@H](N)Cc1ccccc1)C(=O)Nc1ccc2ccccc2c1` [L-phenylalanyl-L-arginyl-β-naphthylamide] (HELM PEPTIDE1{F.R.[c1ccc2cc(N[*:1])ccc2c1]}$$$$V2.0), the inhibition at 10 µg/mL in assay [6] was 1%. Further, the “effect on susceptibility to tetracycline and ciprofloxacin” value in assay [7] was “no effect”.

In the case of `N#CC(C#N)=NNc1cccc(Cl)c1` [CCCP, carbonyl cyanide m-chlorophenylhydrazone], the tetracycline accumulation result in [8] was “lowered the tetracycline accumulation”.

As for acriflavine, the “steady-state accumulation of acriflavine” value is reported as “increases at least fivefold” in [9] (acrA mutant vs wild type) and “extremely low” in assay [9] (wild-type acrA+ strain).

Regarding `CCn1cc(C(=O)O)c(=O)c2cc(F)c(N3CCNCC3)cc21` [norfloxacin], in assay [3], the “efflux by wild-type strains” value was “very effectively”.

Consider `c1ccc(-c2ccccn2)nc1` [2,2'-dipyridyl], for which, in assay [10], the “susceptibility associated with production of a 50-kDa outer membrane protein” value was “decreased susceptibility”.

In general, inhibition refers to the share of the control response that was lost under treatment.
